Results: patent US10399972B2, “Tricyclic compounds as inhibitors of mutant IDH enzymes” (Merck Sharp & Dohme Corp., priority 2015, dated 2019)

Target: R132H mutant IDH1 enzyme (Homo sapiens (Human), UniProt O75874, R132H)
Assay: R132H IDH1 Enzymatic Assay
Format: biochemical
Details: 1.5 nM final, 30 min preincubation, 60 min reaction, Kinase-GLO luminescence
Protocol: R132H IDH1 Enzymatic Assay
Each test compound (10 mM stock in DMSO) is diluted in DMSO to make a 10-point, 3-fold dilution series. 125 nL of each dilution or DMSO alone is dispensed to a 384-well Greiner Lumitrac 200 assay plate using an Echo® Liquid Handler. To each well of the plate is added 20 uL of enzyme in assay buffer or assay buffer alone. Assay buffer consists of 50 mM sodium phosphate, pH 7.0, 50 mM magnesium chloride, 50 mM sodium chloride, and 0.01% (w/v) bovine serum albumin. When present, the R132H mutant IDH1 enzyme is at a working concentration of 1.875 nM (final concentration in assay of 1.5 nM). The assay plate is allowed to incubate for 30 minutes at room temperature and 5 uL of 5× substrate mixture (2.5 uM nicotinamide adenine dinucleotide phosphate, 100 uM adenosine diphosphate, 7.5 mM glyceraldehyde-3-phosphate, 7.5 ug/mL of spinach glyceraldehyde-3-phosphate dehydrogenase, 25 nM phosphoglycerate kinase, and 5 mM alpha-ketoglutarate in assay buffer) is added to all wells. The reaction plate is incubated for 60 minutes followed by addition of 25 uL of Promega Kinase-GLO reagent to all wells and 10-minute incubation.
Luminescence is measured using a PerkinElmer Envision plate reader. The percent activity of each dilution is determined as the ratio of background corrected signal to the background corrected signal of wells receiving only DMSO. IC50 values are determined by fitting percent activity data to a four-parameter logistic dose response equation. The IC50 values of the exemplified compounds are included in Table 8.

Sequence of R132H mutant IDH1 enzyme (O75874 whole entry R132H): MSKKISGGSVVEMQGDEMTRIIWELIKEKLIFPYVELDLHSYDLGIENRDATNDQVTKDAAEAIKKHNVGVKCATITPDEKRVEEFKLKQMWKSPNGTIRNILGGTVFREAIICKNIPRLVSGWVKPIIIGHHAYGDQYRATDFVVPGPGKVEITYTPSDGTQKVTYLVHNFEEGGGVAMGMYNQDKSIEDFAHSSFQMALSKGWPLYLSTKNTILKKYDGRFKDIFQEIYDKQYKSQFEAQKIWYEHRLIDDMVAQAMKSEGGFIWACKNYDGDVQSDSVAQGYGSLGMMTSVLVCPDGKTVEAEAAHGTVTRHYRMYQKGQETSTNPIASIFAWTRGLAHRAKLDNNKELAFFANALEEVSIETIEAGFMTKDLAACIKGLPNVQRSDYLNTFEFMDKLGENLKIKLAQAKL

| Structure (SMILES) | IC50 [nM] |
| --- | --- |
| O=C(C1CCN(CC(F)(F)F)CC1)N1Cc2cc(F)cnc2Nc2cc(F)c(-c3ccn[nH]3)cc21 [Example 51, (3,9-difluoro-8-(1H-pyrazol-5-yl)-5,11-dihydro-6H-benzo[b]pyrido[2,3-e][1,4]diazepin-6-yl)(1-(2,2,2-trifluoroethyl)piperidin-4-yl)methanone] | 3.6 |
| Cn1cc(-c2cc3c(cc2F)Nc2ncccc2CN3C(=O)C2CCN(CC(F)(F)F)CC2)cn1 [Example 52, (9-Fluoro-8-(1-methyl-1H-pyrazol-4-yl)-5,11-dihydro-6H-benzo[b]pyrido[2,3-e][1,4]diazepin-6-yl)(1-(2,2,2-trifluoroethyl)piperidin-4-yl)methanone] | 5.7 |
| Cn1nccc1-c1cc2c(cc1F)Nc1ncccc1CN2C(=O)C1CCN(CC(F)(F)F)CC1 [Example 53, (9-fluoro-8-(1-methyl-1H-pyrazol-5-yl)-5,11-dihydro-6H-benzo[b]pyrido[2,3-e][1,4]diazepin-6-yl)(1-(2,2,2-trifluoroethyl)piperidin-4-yl)methanone] | 7.2 |
| O=C(C1CCN(CC(F)(F)F)CC1)N1Cc2cc(F)cnc2Nc2ccc([C@H]3COCCO3)cc21 [Example 54, (S)-(8-(1,4-Dioxan-2-yl)-3-fluoro-5,11-dihydro-6H-benzo[b]pyrido[2,3-e][1,4]diazepin-6-yl)(1-(2,2,2-trifluoroethyl)piperidin-4-yl)methanone] | 5.6 |
| O=C(C1CCN(CC(F)(F)F)CC1)N1Cc2cc(F)cnc2Nc2ccc([C@@H]3COCCO3)cc21 [Example 55, (R)-(8-(1,4-dioxan-2-yl)-3-fluoro-5,11-dihydro-6H-benzo[b]pyrido[2,3-e][1,4]diazepin-6-yl)(1-(2,2,2-trifluoroethyl)piperidin-4-yl)methanone] | 6.5 |
| O=C(C1CCN(CC(F)(F)F)CC1)N1Cc2cccnc2Nc2cc(F)c([C@@H]3COCCO3)cc21 [Example 56, (R)-(8-(1,4-Dioxan-2-yl)-9-fluoro-5,11-dihydro-6H-benzo[b]pyrido[2,3-e][1,4]diazepin-6-yl)(1-(2,2,2-trifluoroethyl)piperidin-4-yl)methanone] | 18.1 |
| O=C(C1CCN(CC(F)(F)F)CC1)N1Cc2cccnc2Nc2cc(F)c([C@H]3COCCO3)cc21 [Example 57, (S)-(8-(1,4-dioxan-2-yl)-9-fluoro-5,11-dihydro-6H-benzo[b]pyrido[2,3-e][1,4]diazepin-6-yl)(1-(2,2,2-trifluoroethyl)piperidin-4-yl)methanone] | 12.2 |
| Cc1cc2c(cc1N1C[C@@H]3CC[C@H]1CO3)N(C(=O)[C@H]1CC[C@H](OC(C)C)CC1)Cc1cccnc1N2 [Example 58, (trans-4-isopropoxycyclohexyl){9-methyl-8-[(1S,4S)-2-oxa-5-azabicyclo[2.2.2]oct-5-yl]-5,11-dihydro-6H-pyrido[2,3-b][1,5]benzodiazepin-6-yl}methanone] | 18.3 |
| Cc1c(N2C[C@@H]3CC[C@H]2CO3)ccc2c1N(C(=O)[C@H]1CC[C@H](OC(C)C)CC1)Cc1cccnc1N2 [Example 59, (trans-4-isopropoxycyclohexyl){7-methyl-8-[(1S,4S)-2-oxa-5-azabicyclo[2.2.2]oct-5-yl]-5,11-dihydro-6H-pyrido[2,3-b][1,5]benzodiazepin-6-yl}methanone] | 58.7 |
| Cc1cc2c(cc1N1C[C@H]3CC[C@@H]1CO3)N(C(=O)[C@H]1CC[C@H](OC(C)C)CC1)Cc1cccnc1N2 [Example 60, (trans-4-isopropoxycyclohexyl){9-methyl-8-[(1R,4R)-2-oxa-5-azabicyclo[2.2.2]oct-5-yl]-5,11-dihydro-6H-pyrido[2,3-b][1,5]benzodiazepin-6-yl}methanone] | 25.9 |
| Cc1c(N2C[C@H]3CC[C@@H]2CO3)ccc2c1N(C(=O)[C@H]1CC[C@H](OC(C)C)CC1)Cc1cccnc1N2 [Example 61, (trans-4-isopropoxycyclohexyl){7-methyl-8-[(1R,4R)-2-oxa-5-azabicyclo[2.2.2]oct-5-yl]-5,11-dihydro-6H-pyrido[2,3-b][1,5]benzodiazepin-6-yl}methanone] | 54.1 |
| CC(C)O[C@H]1CC[C@H](C(=O)N2Cc3cccnc3Nc3cc(F)c(N4CC5CCC4CO5)cc32)CC1 (stereo partly drawn) [Example 62, [9-fluoro-8-(2-oxa-5-azabicyclo[2.2.2]oct-5-yl)-5,11-dihydro-6H-pyrido[2,3-b][1,5]benzodiazepin-6-yl](trans-4-isopropoxycyclohexyl)methanone] | 35.2 |
| CC(C)O[C@H]1CC[C@H](C(=O)N2Cc3cccnc3Nc3ccc(N4CC5CCC4CO5)c(F)c32)CC1 (stereo partly drawn) [Example 63, [7-fluoro-8-(2-oxa-5-azabicyclo[2.2.2]oct-5-yl)-5,11-dihydro-6H-pyrido[2,3-b][1,5]benzodiazepin-6-yl](trans-4-isopropoxycyclohexyl)methanone] | 57 |
| CC(C)O[C@H]1CC[C@H](C(=O)N2Cc3cccnc3Nc3cc(F)c(N4C[C@@H]5C[C@H]4CO5)cc32)OC1 [Example 64, (8-((1S,4S)-2-Oxa-5-azabicyclo[2.2.1]heptan-5-yl)-9-fluoro-5H-benzo[b]pyrido[2,3-e][1,4]diazepin-6(11H)-yl)((2R,5S)-5-isopropoxytetrahydro-2H-pyran-2-yl)methanone] | 46.3 |
| CC(C)OC1CCC(C(=O)N2c3cc(Cl)ccc3Nc3ncccc3C2C)CC1 (stereo not drawn) [Example 65, (8-Chloro-5-methyl-5,11-dihydro-6H-benzo[b]pyrido[2,3-e][1,4]diazepin-6-yl)(trans-4-isopropoxycyclohexyl)methanone] | 106 |
| CC(C)O[C@H]1CC[C@H](C(=O)N2c3cc(N4CCOCC4)ccc3Nc3ncccc3C2C)CC1 (stereo partly drawn) [Example 66, (Trans-4-isopropoxycyclohexyl)(5-methyl-8-morpholino-5,11-dihydro-6H-benzo[b]pyrido[2,3-e][1,4]diazepin-6-yl)methanone] | 71.9 |
| COc1ccc2c(c1)N(C(=O)C1CCN(CC(F)(F)F)CC1)C(C)c1cccnc1N2 (stereo not drawn) [Example 67, (8-Methoxy-5-methyl-5,11-dihydro-6H-benzo[b]pyrido[2,3-e][1,4]diazepin-6-yl)(1-(2,2,2-trifluoroethyl)piperidin-4-yl)methanone] | 215 |
| COc1ccc2c(c1)N(C(=O)[C@H]1CC[C@H](OC(C)C)CC1)C(C)c1cccnc1N2 (stereo partly drawn) [Example 68, (Trans-4-isopropoxycyclohexyl)(8-methoxy-5-methyl-5,11-dihydro-6H-benzo[b]pyrido[2,3-e][1,4]diazepin-6-yl)methanone] | 112 |
| Cc1cnc2c(c1)CN(C(=O)[C@H]1CC[C@H](OC(C)C)CC1)c1cc(N3C[C@@H]4CC[C@H]3CO4)ccc1N2 [Example 69, (8-((1S,4S)-2-Oxa-5-azabicyclo[2.2.2]octan-5-yl)-3-methyl-5,11-dihydro-6H-benzo[b]pyrido[2,3-e][1,4]diazepin-6-yl)(trans-4-isopropoxycyclohexyl)methanone] | 103 |
| CC(C)O[C@H]1CC[C@H](C(=O)N2Cc3cc(S(C)(=O)=O)cnc3Nc3ccc(N4C[C@@H]5CC[C@H]4CO5)cc32)CC1 [Example 70, (8-((1S,4S)-2-oxa-5-azabicyclo[2.2.2]octan-5-yl)-3-(methylsulfonyl)-5,11-dihydro-6H-benzo[b]pyrido[2,3-e][1,4]diazepin-6-yl)(trans-4-isopropoxycyclohexyl)methanone] | 5750 |
| CC(C)O[C@H]1CC[C@H](C(=O)N2Cc3cc(Cl)cnc3Nc3ccc(N4C[C@@H]5CC[C@H]4CO5)cc32)CC1 [Example 71, (8-((1S,4S)-2-Oxa-5-azabicyclo[2.2.2]octan-5-yl)-3-chloro-5,11-dihydro-6H-benzo[b]pyrido[2,3-e][1,4]diazepin-6-yl)(trans-4-isopropoxycyclohexyl)methanone] | 30 |
| O=C(C1CCN(CC(F)(F)F)CC1)N1Cc2cc(F)cnc2Nc2cc(F)ccc21 [Example 72, (3,9-Difluoro-5,11-dihydro-6H-benzo[b]pyrido[2,3-e][1,4]diazepin-6-yl)(1-(2,2,2-trifluoroethyl)piperidin-4-yl)methanone] | 160 |
| O=C(C1CCN(CC(F)(F)F)CC1)N1Cc2cc(F)cnc2Nc2cc(F)c(N3CC4CCC3CO4)cc21 (stereo not drawn) [Example 73, (8-(2-oxa-5-azabicyclo[2.2.2]octan-5-yl)-3,9-difluoro-5H-benzo[b]pyrido[2,3-e][1,4]diazepin-6(11H)-yl)(1-(2,2,2-trifluoroethyl)piperidin-4-yl)methanone] | 10 |
| O=C(C1CCN(CC(F)(F)F)CC1)N1Cc2cccnc2Nc2cc(F)ccc21 [Example 74, (9-Fluoro-5,11-dihydro-6H-benzo[b]pyrido[2,3-e][1,4]diazepin-6-yl)(1-(2,2,2-trifluoroethyl)piperidin-4-yl)methanone] | 174 |
